Experimental data reported in patent publication US20180353524A1, “CANCER TREATMENT USING 2-DEOXY-2-FLUORO-L-FUCOSE IN COMBINATION WITH A CHECKPOINT INHIBITOR” (SEATTLE GENETICS, INC., priority 2015, published 2018).

Legend:
[1] = test system: dendritic cells; test: DC markers in co-cultures of T-cells and DCs (FACS); assay type: cell-based, human
Method: T-cells were isolated from 10 mL of whole blood which was centrifuged first at 1200 rpm (300×g) for 10 min (without brakes). The top layer containing platelets was removed carefully without disrupting the white blood cell layer. Then RosetteSep™ Human T-Cell Enrichment Cocktail (Pan T-cells from StemCell technologies, Vancouver, BC) was added to the remaining blood (500 μL/10 mL blood). This was incubated for 20 min and then 1 mL FBS was added along with 10 mL PBS. Histopaque (20-25 mL) placed in a 50 mL Falcon the prepared blood/PBS solution was overlaid very slowly. This was centrifuged with no brake (25° C., 1500 rpm, 25 min). The top layer was removed and the T-cells in the buffy coat layer were then removed to a new 50 mL tube. The T-cells were washed with PBS, resuspended in 1 mL ACK lysis buffer and topped up to 25 mL, incubated for 5 min, brought up to 50 mL with PBS, and then pelleted. This red blood cell lysis step was repeated a second time.
PBMCs were isolated similarly to the T-cells, except that 90 mL of blood were used and after the removal of platelets the RosetteSep™ Human T-Cell Enrichment Cocktail was not added, instead an equal volume of PBS (90 mL) was added before overlaying on Histopaque. Centrifugation over Histopaque as above results in PBMC-containing buffy coat.
DCs (20000-30000/well) and 10 times as many T-cells were plated in each well in a total of 200 μL/well in DC medium. Co-cultures were incubated 24 h after which cells evaluated for DC maturation markers as described below.
Transwell assays were performed in 24-well plates. Co-cultures were plated out as described above with the final volume per well of 500 μL. For the transwell samples DCs were plated in the well and T-cells placed into the insert. The cells were then incubated 24 h and examined in the same manner as co-cultures without transwells.
DCs were grown as described until day 8 when there were split into two flasks, one with normal media and the other in serum free media. While no serum was present, X-VIVO™ 15 media contains growth factors which help maintain the health of the cultures. The co-culture experiment was performed as above in 48-well plates.
Co-cultures were examined using FACS analysis. After incubation, cells were washed in BD stain buffer (BSA) with Human Fc block (EMD Millipore) and incubated on ice for 30 min. Cells were then stained with fluorescently labeled anti-MHCII, anti-CD86, anti-CD83, and anti-CD40 primary antibodies (BD, 1:100 or 1:50 in BD stain buffer (BSA)) or with appropriate isotype controls (ice, dark, 40 min). Cells were then washed twice in BD stain buffer (BSA) and analyzed on an LSRII flow cytometer.

[2] = test system: Galectin-3; test: Activated T-cell expression of Galectin-3 (FACS); assay type: cell-based, human; conditions: CD3/CD28 activated T-cells, overnight
Method: Purified T-cells were plated in 12-well plates (10^6 cells/well, 1-2 mL T-cell medium) and were activated with CD3/CD28 beads (4 μL beads/2 mL media, Miltenyi Biotec). Cells were incubated at 37° C. overnight and were then analyzed for Galectin-3 expression after fixation and permeabilization followed by FACS analysis.

C[C@@H]1OC(O)[C@@H](F)[C@H](O)[C@@H]1O (stereo partly drawn) [2-deoxy-2-fluoro-L-fucose]
DC activation and maturation markers, DCs alone ([1]; DCs alone, with or without treatment): do not show changes in these markers | DC activation and maturation markers MHCII, CD86, CD83 and CD40 (MFI vs control co-culture) ([1]; DCs co-cultured 24 h with autologous T-cells expanded with 100-200 μM, serum-containing medium): increases in the DC activation and maturation markers MHCII, CD86, CD83 and CD40 | DC activation and maturation markers, transwell co-culture ([1]; T-cells and DCs separated by transwell inserts): do not occur when transwell inserts are used | DC activation and maturation markers, serum-free co-culture ([1]; serum-free medium (no antigen)): does not provide the same increases | galectin-3 levels in T-cells [2]: reduction in galectin-3 levels
